In patent US6608032B1, “Medicinal compositions” (Takara Shuzo Co., Ltd., priority 1999, dated 2003):

System: heme oxygenase 1 protein
Assay: Heme oxygenase 1 induction in RAW264.7 cells (Western blot)
Assay type: cell-based
Set-up: key: − represents no band observed; increase in the intensity of the band is represented as follows:+−<+<++; increase in the intensity of the band is represented as follows:+−<+<++; increase in the intensity of the band is represented as follows:+−<+<++
Settings: 15 hours
Method: RAW264.7 cells (ATCC TIB 71) were suspended in Dulbecco's modified Eagle's medium (Bio Whittaker, 12-604F) containing 10% fetal calf serum (Gibco) at a concentration of 3×10^5 cells/ml. 5 ml of the suspension was added to each well of a 6-well microtiter plate and the plate was incubated at 37° C. overnight in the presence of 5% CO2. 50 μl of a solution containing agarobiose or agarohexaose in Referential Example 1 at a concentration of 20 mM, 10 mM or 5 mM in water was added to the well. The plate was incubated for 15 hours. A positive control for heme oxygenase 1 induction in which 5 μl of 3 mM solution of 15-deoxy-Δ12,14 prostaglandin J2 (Cayman Chemical, 18570) in dimethyl sulfoxide was added, and a negative control in which water was added were provided. The cells were recovered by detaching the cells from the plate using a scraper and suspended in 0.1 M tris-HCl buffer (pH 7.5) containing 0.05 mM pepstatin A (Sigma, P5318), 0.2 mM leupeptin (Sigma, L2884), 1 mM phenylmethylsulfonyl fluoride (Nacalai Tesque, 273-27), 10 mm ethylenediaminetetraacetic acid disodium salt and 0.1% Triton X-100. A supernatant obtained by centrifuging the suspension after freezing and thawing was used as a protein fraction. The content of protein in the protein fraction was determined using Micro BCA Protein Assay Reagent (a product of Pierce sold by Takara Shuzo, P7411). A sample from the protein fraction prepared as described above was mixed with an equal volume of 0.125 M tris-hydrochloride buffer (pH 6.8) containing 4% sodium lauryl sulfate (SDS), 2% 2-mercaptoethanol, 0.001% Bromophenol Blue and 20% glycerol. After treatment at 100° C. for 5 minutes, a portion corresponding to 10 μg of protein was loaded on 12.5% SDS-polyacrylamide gel and electrophoresed at a constant current of 20 mA. After electrophoresis, the gel was transferred to a PVDF membrane (Millipore, IPVH000 10) at a constant voltage of 15 V for 25 minutes using a blotting buffer (containing 48 mM tris, 39 mM glycine, 20% methanol and 0.0375% SDS) and Trans-Blot SD Cell Semi-Dry blotting apparatus (Bio-Rad) according to the attached protocol. After transferring, the PVDF membrane was blocked in a solution of Block Ace (Dainippon Pharmaceutical, UK-B25) at 4° C. overnight. After blocking, the membrane washed three times in phosphate buffered saline containing 0.1% Tween 20 for 15 minutes with gentle shaking. The membrane was reacted in phosphate buffered saline containing 10% Block Ace, 0.1% Tween 20 and 200 ng/ml of anti-heme oxygenase 1 antibody (N-19; Santa Cruz, sc-7696) at room temperature for 1 hour with gentle shaking, and then washed three times in phosphate buffered saline containing 0.1% Tween 20 for 15 minutes with gentle shaking. The membrane was reacted in phosphate buffered saline containing 10% Block Ace, 0.1% Tween 20 and 0.1% peroxidase-labeled rabbit anti-goat IgG (H+L) antibody (Zymed, 61-1620) at room temperature for 1 hour with gentle shaking, and then washed five times in phosphate buffered saline containing 0.1% Tween 20 for 15 minutes with gentle shaking. The PVDF membrane was stained using Western Blot Chemiluminescence Reagent Plus (a product of NEN Life Science Products sold by Daiichi Pure Chemicals, NEL103) according to the attached protocol and exposed to an X-ray film (Kodak, CAT165 1454). After exposure, the film was developed using FPM800 (Fuji Film).
The intensity of the band depended on the concentration of agarobiose or agarohexaose. In the table, the intensity of the band for heme oxygenase 1 protein is expressed by the mark+. Specifically, − represents no band observed, and increase in the intensity of the band is represented as follows:+−<+<++.

| Compound | Intensity of band for heme oxygenase 1 protein (final concentration of 50 μM) | Intensity of band for heme oxygenase 1 protein (final concentration of 100 μM) | Intensity of band for heme oxygenase 1 protein (final concentration of 200 μM) |
| --- | --- | --- | --- |
| OCC1OC(OC2C3COC2C(O)C(OC2C(O)C(CO)OC(OC4C5COC4C(O)C(OC4C(O)C(CO)OC(OC6C7COC6C(O)C(O)O7)C4O)O5)C2O)O3)C(O)C(O)C1O (stereo not drawn) [Agarohexaose, agarohexaose] | +− | + | ++ |
| OC[C@H]1O[C@@H](O[C@H]2[C@H]3OC[C@@H]2OC(O)[C@H]3O)[C@H](O)[C@@H](O)[C@H]1O (mixture of isomers) [Agarobiose, agarobiose] | +− | + | ++ |
